Broadly, the EC50 is the concentration at which the effect is half-maximal.

The experiment deals with RKO p21 uninduced (proliferating) colon adenocarcinoma cells. The experiment is described as follows: Alamar Blue cell viability assay, RKO p21 uninduced (proliferating). In kind it is cell-based. The note with it: Homo sapiens, Table B3, anti-proliferative/cytotoxic activity, 72 hours, read-out: −log EC50 RKO p21 uninduced (proliferating) (converted). Put shortly: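 RKO p21 or p27 subclones grown without Ponasterone A, i.e. proliferating, exposed 24 h after seeding to semi-log compound dilutions in DMEM/10% FCS (1% DMSO controls) for 72 h at 37° C. Alamar Blue fluorescence (544/590 nm) read relative to untreated cells; EC50 from dose-response curves, given as −log EC50 (mol/l).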
For orientation: Alamar Blue is a resazurin reagent that responds to reducing activity.
For the compound `CCOc1ccc2[nH]c3c(c2c1)C[C@@]1(C)C(=O)N(CCCN(C)C(C)C)C(=O)N1[C@@H]3c1cccc(O)c1` (racemic) [Example 197, (3aSR,10RS)-6-Ethoxy-10-(3-hydroxy-phenyl)-2-[3-(isopropyl-methyl-amino)-propyl]-3a-methyl-3a,4,9,10-tetrahydro-2,9,10a-triaza-cyclpenta[b]fluorene-1,3-dione], the EC50 is 39.8 to 251 nM.

Take `C[C@@]12Cc3c([nH]c4ccc(Br)cc34)[C@@H](c3cccc(O)c3)N1C(=O)N(CCN1CCCCCC1)C2=O` (racemic) [Example 396, (3aSR,10RS)-2-(2-Azepan-1-yl-ethyl)-6-bromo-10-(3-hydroxy-phenyl)-3a-methyl-3a,4,9,10-tetrahydro-2,9,10a-triaza-cyclopenta[b]fluorene-1,3-dione]: the concentration for a half-maximal effect (EC50) was 39.8 to 251 nM.

With `COc1cc2c3c([nH]c2cc1F)[C@@H](c1cccc(O)c1)N1C(=O)N(CCN2CC=CCC2)C(=O)[C@]1(C)C3` (racemic) [Example 265, (3aSR,10RS)-2-[2-(3,6-Dihydro-2H-pyridin-1-yl)-ethyl]-7-fluoro-10-(3-hydroxy-phenyl)-6-methoxy-3a-methyl-3a,4,9,10-tetrahydro-2,9,10a-triaza-cyclopenta[b]fluorene-1,3-dione], the 50% effective concentration (EC50) is 39.8 to 251 nM.

As for `C[C@@]12Cc3c([nH]c4ccc(Cl)cc34)[C@@H](c3cccc(O)c3)N1C(=O)N(CCCN1CC=CCC1)C2=O` (racemic) [Example 174, (3aSR,10RS)-6-Chloro-2-[3-(3,6-dihydro-2H-pyridin-1-yl)-propyl]-10-(3-hydroxy-phenyl)-3a-methyl-3a,4,9,10-tetrahydro-2,9,10a-triaza-cyclopenta[b]fluorene-1,3-dione], the concentration for a half-maximal effect (EC50) is at most 39.8 nM.

`C#CCNCCCN1C(=O)N2[C@H](c3cccc(O)c3)c3[nH]c4cc(F)c(Cl)cc4c3C[C@@]2(C)C1=O` (racemic) [Example 466, (3aSR,10RS)-6-Chloro-7-fluoro-10-(3-hydroxy-phenyl)-3a-methyl-2-(3-prop-2-ynylamino-propyl)-3a,4,9,10-tetrahydro-2,9,10a-triaza-cyclopenta[b]fluorene-1,3-dione]: the EC50 was 39.8 to 251 nM.

Consider `CC(=O)N1CCN(CCN2C(=O)N3[C@H](c4cccc(O)c4)c4[nH]c5ccc(Br)cc5c4C[C@@]3(C)C2=O)CC1` (racemic) [Example 387, (3aSR,10RS)-2-[2-(4-Acetyl-piperazin-1-yl)-ethyl]-6-bromo-10-(3-hydroxy-phenyl)-3a-methyl-3a,4,9,10-tetrahydro-2,9,10a-triaza-cyclopenta[b]fluorene-1,3-dione], for which the EC50 is at most 39.8 nM.

As to `CC1CCN(CCN2C(=O)N3[C@H](c4cccc(O)c4)c4[nH]c5ccc(OC(F)F)cc5c4C[C@@]3(C)C2=O)CC1` (racemic) [Example 293, (3aSR,10RS)-6-(1,1-Difluoro-methoxy)-10-(3-hydroxy-phenyl)-3a-methyl-2-[2-(4-methyl-piperidin-1-yl)-ethyl]-3a,4,9,10-tetrahydro-2,9,10a-triaza-cyclopenta[b]fluorene-1,3-dione], the EC50 is 39.8 to 251 nM.

`C[C@@]12Cc3c([nH]c4ccc(Br)cc34)[C@@H](c3cccc(O)c3)N1C(=O)N(CCN1CCCCC1)C2=O` (racemic) [Example 390, (3aSR,10RS)-6-Bromo-10-(3-hydroxy-phenyl)-3a-methyl-2-(2-piperidin-1-yl-ethyl)-3a,4,9,10-tetrahydro-2,9,10a-triaza-cyclopenta[b]fluorene-1,3-dione]: the EC50 is at most 39.8 nM.

As to `C[C@@]12Cc3c([nH]c4ccc(OC(F)F)cc34)[C@@H](c3cccc(O)c3)N1C(=O)N(CCCN1CCOCC1)C2=O` (racemic) [Example 236, (3aSR,10RS)-6-(1,1-Difluoro-methoxy)-10-(3-hydroxy-phenyl)-3a-methyl-2-(3-morpholin-4-yl-propyl)-3a,4,9,10-tetrahydro-2,9,10a-triaza-cyclopenta[b]fluorene-1,3-dione], the concentration for a half-maximal effect (EC50) is 39.8 to 251 nM.

Regarding `C[C@@]12Cc3c([nH]c4ccc(OC(F)F)cc34)[C@@H](c3cccc(O)c3)N1C(=O)N(CCN)C2=O` (racemic) [Example 283, (3aSR,10RS)-2-(2-Amino-ethyl)-6-(1,1-difluoro-methoxy)-10-(3-hydroxy-phenyl)-3a-methyl-3a4,9,10-tetrahydro-2,9,10a-triaza-cyclopenta[b]fluorene-1,3-dione], the EC50 is 39.8 to 251 nM.

For `CCOc1ccc2[nH]c3c(c2c1)C[C@@]1(C)C(=O)N(CCN(CC)CCO)C(=O)N1[C@@H]3c1cccc(O)c1` (racemic) [Example 298, (3aSR,10RS)-6-Ethoxy-2-{2-[ethyl-(2-hydroxy-ethyl)-amino]-ethyl}-10-(3-hydroxy-phenyl)-3a-methyl-3a,4,9,10-tetrahydro-2,9,10a-triaza-cyclopenta[b]fluorene-1,3-dione], the EC50 is 39.8 to 251 nM.

For `CC(=O)N1CCN(CCCN2C(=O)N3[C@H](c4cccc(O)c4)c4[nH]c5ccc(OC(F)F)cc5c4C[C@@]3(C)C2=O)CC1` (racemic) [Example 241, (3aSR,10RS)-2-[3-(4-Acetyl-piperazin-1-yl)-propyl]-6-(1,1-difluoro-methoxy)-10-(3-hydroxy-phenyl)-3a-methyl-3a,4,9,10-tetrahydro-2,9,10a-triaza-cyclopenta[b]fluoroene-1,3-dione], the EC50 is 39.8 to 251 nM.

Consider `CC(=O)N1CCN(CCN2C(=O)N3[C@H](c4cccc(O)c4)c4[nH]c5cc(F)c(Cl)cc5c4C[C@@]3(C)C2=O)CC1` (racemic) [Example 360, (3aSR,10RS)-2-[2-(4-Acetyl-piperazin-1-yl)-ethyl]-6-chloro-7-fluoro-10-(3-hydroxy-phenyl)-3a-methyl-3a,4,9,10-tetrahydro-2,9,10a-triaza-cyclopenta[b]fluorene-1,3-dione], for which the concentration giving a half-maximal response (EC50) is 39.8 to 251 nM.

As to `CCNCCN1C(=O)N2[C@H](c3cccc(O)c3)c3[nH]c4cc(F)c(Cl)cc4c3C[C@@]2(C)C1=O` (racemic) [Example 338, (3aSR,10RS)-6-Chloro-2-(2-ethylamino-ethyl)-7-fluoro-10-(3-hydroxy-phenyl)-3a-methyl-3a,4,9,10-tetrahydro-2,9,10a-triaza-cyclopenta[b]fluorene-1,3-dione], the half-maximal effective concentration (EC50) is at most 39.8 nM.

For `CCOc1ccc2[nH]c3c(c2c1)C[C@@]1(C)C(=O)N(CCCN2CCCCC2)C(=O)N1[C@@H]3c1cccc(O)c1` (racemic) [Example 223, (3aSR,10RS)-6-Ethoxy-10-(3-hydroxy-phenyl)-3a-methyl-2-(3-piperidin-1-yl-propyl)-3a,4,9,10-tetrahydro-2,9,10a-triaza-cyclopenta[b]fluorene-1,3-dione], the concentration giving a half-maximal response (EC50) was 39.8 to 251 nM.

Regarding `C[C@@]12Cc3c([nH]c4ccc(OC(F)F)cc34)[C@@H](c3cccc(O)c3)N1C(=O)N(CCNC1CCC1)C2=O` (racemic) [Example 272, (3aSR,10RS)-2-(2-Cyclobutylamino-ethyl)-6-(1,1-difluoro-methoxy)-10-(3-hydroxy-phenyl)-3a-methyl-3a,4,9,10-tetrahydro-2,9,10a-triaza-cyclopenta[b]fluorene-1,3-dione], the EC50 was at most 39.8 nM.

Turning to `COc1ccc2[nH]c3c(c2c1)C[C@@]1(C)C(=O)N(CCCN(C)C)C(=O)N1[C@@H]3c1cccc(O)c1` [Example 540, (3aS,10R)-2-(3-Dimethylamino-propyl)-10-(3-hydroxy-phenyl)-6-methoxy-3a-methyl-3a,4,9,10-tetrahydro-2,9,10a-triaza-cyclopenta[b]fluorene-1,3-dione], the EC50 is at most 39.8 nM.

Take `C=CCN(C)CCN1C(=O)N2[C@H](c3cccc(O)c3)c3[nH]c4ccc(OCC)cc4c3C[C@@]2(C)C1=O` (racemic) [Example 300, (3aSR,10RS)-2-[2-(Allyl-methyl-amino)-ethyl]-6-ethoxy-10-(3-hydroxy-phenyl)-3a-methyl-3a,4,9,10-tetrahydro-2,9,10a-triaza-cyclopenta[b]fluorene-1,3-dione]: the EC50 was 39.8 to 251 nM.

On to `C[C@@]12Cc3c([nH]c4ccc(OC(F)F)cc34)[C@@H](c3cccc(O)c3)N1C(=O)N(CCNCC1CC1)C2=O` (racemic) [Example 270, (3aSR,10RS)-2-[2-(Cyclopropylmethyl-amino)-ethyl]-6-(1,1-difluoro-methoxy)-10-(3-hydroxy-phenyl)-3a-methyl-3a,4,9,10-tetrahydro-2,9,10a-triaza-cyclopenta[b]fluorene-1,3-dione], for which the EC50 was at most 39.8 nM.

`CCOc1ccc2[nH]c3c(c2c1)C[C@@]1(C)C(=O)N(CCCNCCOC)C(=O)N1[C@@H]3c1cccc(O)c1` (racemic) [Example 189, (3aSR,10RS)-6-Ethoxy-10-(3-hydroyx-phenyl)-2-[3-(2-methoxy-ethylamino)-propyl]-3a-methyl-3a,4,9,10-tetrahydro-2,9,10a-triaza-cyclopenta[b]fluorene-1,3-dione]: the half-maximal effective concentration (EC50) is 39.8 to 251 nM.

With `CN(CCO)CCCN1C(=O)N2[C@H](c3cccc(O)c3)c3[nH]c4ccc(Br)cc4c3C[C@@]2(C)C1=O` (racemic) [Example 370, (3aSR,10RS)-6-Bromo-2-{3-[(2-hydroxy-ethyl)-methyl-amino]-propyl}-10-(3-hydroxy-phenyl)-3a-methyl-3a,4,9,10-tetrahydro-2,9,10a-triaza-cyclopenta[b]fluorene-1,3-dione], the half-maximal effective concentration (EC50) is at most 39.8 nM.

As to `C[C@@]12Cc3c([nH]c4cc(F)c(Cl)cc34)[C@@H](c3cccc(O)c3)N1C(=O)N(CCNCC1CC1)C2=O` (racemic) [Example 341, (3aSR,10RS)-6-Chloro-2-[2-(cyclopropylmethyl-amino)-ethyl]-7-fluoro-10-(3-hydroxy-phenyl)-3a-methyl-3a,4,9,10-tetrahydro-2,9,10a-triaza-cyclopenta[b]fluorene-1,3-dione], the EC50 is at most 39.8 nM.

Regarding `CCOc1ccc2[nH]c3c(c2c1)C[C@@]1(C)C(=O)N(CCCN(C)C)C(=O)N1[C@@H]3c1cccc(O)c1` (racemic) [Example 226, (3aSR,10RS)-2-(3-Dimethylamino-propyl)-6-ethoxy-10-(3-hydroxy-phenyl)-3a-methyl-3a,4,9,10-tetrahydro-2,9,10a-triaza-cyclopenta[b]fluorene-1,3-dione], the 50% effective concentration (EC50) was 39.8 to 251 nM.

For the origin of these results see patent publication US8530493B2, “Indolopyridines as Eg5 kinesin modulators” (4SC AG, priority 2006, dated 2013).
